Test results reported in ChEMBL document CHEMBL3430912, “GSK Tres Cantos Anti-Kinetoplastid Screening (TCAKS) Data”.

Tests used:
Leishmania donovani [1] = assay: (§1) GSK_TCAKS: pIC50 Leishmania donovani Imaging: Infected Macrophages. Assay plates (384-well) were prepared by adding 250nL of compound to each well. For single shot assay, the final compound concentration was 5 uM. […] Automated image analysis was performed with a script developed on Acapella High Content Imaging and Analysis Software (PerkinElmer). Output: Percent of infected macrophage cells were reported for each well.; assay type: functional, organism-based, Homo sapiens; details: THP-1
[2] = target: Sterol 14-alpha demethylase (Trypanosoma cruzi (strain CL Brener), UniProt Q7Z1V1); assay: GSK_TCAKS: pIC50 CYP51 from Trypanosoma cruzi.; assay type: functional
Leishmania donovani [3] = assay: GSK_TCAKS: pIC50 Leishmania donovani viability assay using fluorescence intensity. Assay plates (1536-well) were prepared by adding 30nL per well of compound. For single shot assay, the final compound concentration was 5uM. […] Briefly, eGFP LdBOB axenic amastigotes were harvested, fixed and counted in a CASY cell counter (Roche-Applied Science). A final concentration of 1.5 * 10^5 cells per well were prepared in amastigote media containing 500 U/mL penicillin/streptomycin (Invitrogen) and 6uL was dispensed to each experimental well using a Multidrop Combi dispenser (Thermo Scientific). 6uL of assay media was dispensed to control columns used as reference for 100% compound response. Following incubation for 72 h at 37C, 5% CO2, 2 uL of resazurin was added to each well at a final concentration of 0.5 mM in phosphate buffered saline (PBS) with IGEPAL (Sigma-Aldrich), 0.05% (v/v).; assay type: functional, organism-based
[4] = GSK_TCAKS: pIC50 HepG2 human cell line viability assay using luminiscence. […] Seeding density was checked to ensure that new mono-layers were not more than 50% confluent at the time of harvesting. Cell suspension was added to 500 mL of the same medium at a final density of 1.2 * 10^5 cells/mL. This cell suspension was dispensed (25 uL, 3000 cells per well) into 384-well clear-bottom plates using a Multidrop Combi dispenser. Prior to addition of the cell suspension, the screening compounds (250 nL) were pre-dispensed into the plates with an Echo liquid handler. Plates were incubated for 48 h at 37C, 5% CO2. After incubation, plates equilibrated at room temperature for 30 min before proceeding to develop the luminescent signal. The signal developer, CellTiter-Glo Reagent, was allowed to equilibrate at room temperature for 30 min and added to the plates (25uL per well) using a Multidrop Combi dispenser. Plates were left for 10 min at room temperature for stabilization and then read using a ViewLux.; assay type: toxicity, cell-based
Trypanosoma cruzi [5] = assay: GSK_TCAKS: pIC50 Trypanosoma cruzi viability assay using beta-GAL activity. This assay was run at single shot at 5uM compound concentration per well. The biological reagents consisted of NIH-3T3 host cells and trypomastigotes parasitic cells; both cell types were set to a 3.3 * 10^5 cells/mL dilution in assay DMEM by means of a CASY cell counter device using a 60um capillary. 6 uL of the mixture were dispensed per well (about 1 * 10^3 host-cells and 1 * 10^3 parasites) with a Multidrop Combi dispenser. […] In all wells, the percentage of DMSO never exceeded 0.5%. Plates incubated for four days at 37C, 5% CO2. The substrate used for the assay fluorescence intensity (FLINT) readout was resorufin-beta-D-galactopiranoside (Sigma-Aldrich) at 5uM per well. It was diluted in PBS supplemented with the soft detergent Igepal (Fluka).; assay type: functional, organism-based, Mus musculus; details: Tulahuen, NIH3T3
Trypanosoma cruzi [6] = assay: (§2) GSK_TCAKS: pIC50 Trypanosoma cruzi Imaging: Infected Cells. […] Cells were then washed once with PBS before infection. T. cruzi trypomastigotes, collected at days 5 to 8 after infection from LLC-MK2 parasite infected cultures, were allowed to swim out for 4h at 37C from a centrifuged pellet (2,500 rpm/10 min/room temperature). Trypomastigotes were then collected and counted in a CASY Cell Counter. Trypomastigotes, in supplemented DMEM, were added to H9c2 cultures in a multiplicity of infection of 1 and incubated for 18 h. Cells were washed once with PBS before incubation of the infected H9c2 monolayer with trypsin (Life-Technologies) to detach cells from the flask. Cells were counted in a CASY Cell Counter using a 150 um capillary and their density set at 5 * 10^4 cells per mL in supplemented assay DMEM. Infected H9c2 were dispensed into 384-well poly-lysine coated assay plates at 50uL per well using a Multidrop Combi dispenser. After seeding them, the plates were incubated at 37C, 5% CO2 for 72h. Cultures were then fixed and stained by addition of 50 uL of a solution containing 8% formaldehyde and 4 uM DRAQ5 DNA dye (BioStatus, UK) per well. […] Five images were collected per well for reliable statistical analysis. Automated image analysis was performed with a script developed on Acapella High Content Imaging and Analysis Software (PerkinElmer). Output: percentage of infected cells per well as a second infection marker.; assay type: functional, organism-based, Rattus norvegicus; details: H9c2, 4 h
Trypanosoma cruzi [7] = assay: as §2, with “H2C9” for “Trypanosoma cruzi”, “H9c2 Host Cardiomyocytes.” for “Infected Cells.”, “Number” for “percentage”, “H9c2 Host Cardiomyocytes nuclei to determine drug-related cytotoxicity.” for “infected cells per well as a second infection marker.”; assay type: functional, organism-based, Rattus norvegicus; details: H9c2, 4 h
[8] = test system: Trypanosoma brucei brucei; assay: GSK_TCAKS: pIC50 Trypanosoma brucei viability assay using fluorescence intensity. Assay plates (1536-well) were prepared by dispensing 25nL of compound solution per well using an Echo acoustic dispenser (Labcyte).; assay type: functional, organism-based; details: Lister 427, 2 h
Leishmania donovani [9] = assay: as §1, with “THP-1 Host” for “Infected”, “THP-1 cell count” for “Percent of infected macrophage cells”; assay type: functional, organism-based, Homo sapiens
Trypanosoma cruzi [10] = assay: GSK_TCAKS: pIC50 Trypanosoma cruzi Imaging: Amastigotes/Cell. […] Cells were then washed once with PBS before infection. T. cruzi trypomastigotes, collected at days 5 to 8 after infection from LLC-MK2 parasite infected cultures, were allowed to swim out for 4h at 37C from a centrifuged pellet (2,500 rpm/10 min/room temperature). Trypomastigotes were then collected and counted in a CASY Cell Counter. Trypomastigotes, in supplemented DMEM, were added to H9c2 cultures in a multiplicity of infection of 1 and incubated for 18 h. Cells were washed once with PBS before incubation of the infected H9c2 monolayer with trypsin (Life-Technologies) to detach cells from the flask. Cells were counted in a CASY Cell Counter using a 150 um capillary and their density set at 5 * 10^4 cells per mL in supplemented assay DMEM. Infected H9c2 were dispensed into 384-well poly-lysine coated assay plates at 50uL per well using a Multidrop Combi dispenser. After seeding them, the plates were incubated at 37C, 5% CO2 for 72h. Cultures were then fixed and stained by addition of 50 uL of a solution containing 8% formaldehyde and 4 uM DRAQ5 DNA dye (BioStatus, UK) per well. […] Five images were collected per well for reliable statistical analysis. Automated image analysis was performed with a script developed on Acapella High Content Imaging and Analysis Software (PerkinElmer). Output: number of amastigotes per cell as infection level measurement.; assay type: functional, organism-based, Rattus norvegicus; details: H9c2, 4 h
[11] = test system: Trypanosoma brucei brucei; assay: GSK_TCAKS: pIC50 Trypanosoma brucei viability assay using luminiscence. Assay plates (1536-well) were prepared. T. brucei cultures were harvested and counted in a CASY cell counter. A parasite suspension was prepared at a final concentration of 5 * 10^4 cells/mL in complete HMI9 medium and 6uL was dispensed to all wells containing compounds using a Multidrop Combi dispenser. 6uL of HMI9 media with 0.4% DMSO were dispensed to control columns. Plates were incubated for 24 h at 37C, 5% CO2 then tempered for 10 min at room temperature. ATP content was quantified by adding 4 uL of CellTiter-Glo Reagent (Promega) according to the manufacturer's instructions. Luminescence was measured using a ViewLux.; assay type: functional, organism-based; details: Lister 427, CASY
Leishmania donovani [12] = assay: as §1, with “Amastigotes/Macrophages.” for “Infected Macrophages.”, “Average number” for “Percent”, “amastigotes per” for “infected”, “cell” for “cells”; assay type: functional, organism-based, Homo sapiens; details: THP-1

Chain of Sterol 14-alpha demethylase (Q7Z1V1 whole entry): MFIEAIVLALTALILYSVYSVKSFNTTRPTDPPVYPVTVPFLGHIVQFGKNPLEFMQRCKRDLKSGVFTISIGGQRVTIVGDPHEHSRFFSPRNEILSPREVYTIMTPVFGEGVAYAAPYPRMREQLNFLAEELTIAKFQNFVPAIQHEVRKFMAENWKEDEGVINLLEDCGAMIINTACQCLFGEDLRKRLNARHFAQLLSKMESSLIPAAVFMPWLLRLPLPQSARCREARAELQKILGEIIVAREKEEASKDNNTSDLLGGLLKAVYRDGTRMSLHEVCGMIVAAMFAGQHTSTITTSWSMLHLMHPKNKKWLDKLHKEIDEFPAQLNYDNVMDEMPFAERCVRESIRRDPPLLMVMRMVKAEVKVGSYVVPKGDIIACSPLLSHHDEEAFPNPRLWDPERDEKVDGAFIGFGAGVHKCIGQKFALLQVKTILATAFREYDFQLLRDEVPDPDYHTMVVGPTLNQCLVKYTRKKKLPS

Structure (SMILES) | IC50 (Leishmania donovani [1]) [µM] | IC50 [2] [µM] | IC50 (Leishmania donovani [3]) [µM] | IC50 at 48 h [4] [µM] | IC50 (Trypanosoma cruzi [5]) [µM] | IC50 (Trypanosoma cruzi [6]) [µM] | IC50 (Trypanosoma cruzi [7]) [µM] | IC50 [8] [µM] | IC50 (Leishmania donovani [9]) [µM] | IC50 (Trypanosoma cruzi [10]) [µM] | IC50 [11] [µM] | IC50 (Leishmania donovani [12]) [µM]
Oc1cc(CSc2ccc(Cl)cc2)nc(-c2ccccn2)n1 | 5.01 | 63.1 | 1.58 | > 100 | 1 | 1.58 | 3.16 | 0.794 | 3.98 | 0.794 | 1 | 2
CCc1c(C)nc(-n2nc(C)cc2NC(=O)COc2ccccc2F)[nH]c1=O | 7.94 | > 100 | 0.126 | > 100 | 0.631 | 0.631 | 2.51 | 0.158 | 3.98 | 0.158 | 0.2 | 5.01
COc1ccc(C(=O)[C@H]2C[C@@H]2CN(Cc2ccccn2)Cc2ccccn2)cc1 | 1.58 | 39.8 | 7.94 | > 100 | 1.58 | 1.58 | 25.1 | 6.31 | > 50.1 | 1 | 15.8 | 1.26
CCS(=O)(=O)c1cccc(C(=O)Nc2nc(-c3ccccn3)cs2)c1 | 3.98 | 63.1 | 1.26 | 25.1 | 1.58 | 2.51 | 3.98 | 0.501 | 20 | 1.58 | 0.631 | 3.16
COc1cc2c(cc1OC)[C@H]1[C@@H](C)c3ccc(OC)c(OC)c3CN1CC2 | 20 | 79.4 | 2.51 | > 100 | 25.1 | > 50.1 | > 50.1 | 25.1 | > 50.1 | 20 | > 39.8 | 15.8
CCc1cccc(-n2nc(OCC(=O)NC3CCCC3)c3cccnc32)c1 | 1 | > 100 | 2.51 | > 100 | > 50.1 | > 50.1 | > 50.1 | > 39.8 | > 50.1 | > 50.1 | > 39.8 | 1.26
O=[N+]([O-])c1ccc(-c2nnn(-c3cccnc3)n2)o1 | > 50.1 | 3.98 | 15.8 | > 100 | 0.251 | > 50.1 | 6.31 | 0.316 | 12.6 | 0.0631 | 0.501 | 50.1
O=[N+]([O-])c1ccc(-c2nnn(-c3ccc(Cl)cc3)n2)o1 | > 50.1 | > 100 | 6.31 | > 100 | 0.251 | 0.794 | 10 | 0.316 | > 50.1 | 0.0794 | 1 | > 50.1
COCc1cc(Nc2ccc(Cl)cc2)nc(-c2ccccn2)n1 | 1.26 | > 100 | 2.51 | 12.6 | 1.58 | 5.01 | 1.26 | 20 | 20 | 2.51 | > 39.8 | 0.794
